Measurements taken from US20070128217A1 (priority 2003, published 2007).

How the values were obtained:
[1] = system: rabbit serum obtained by immunizing a rabbit with the SARS-CoV strain Frankfurt 1; format: binding; design: Binding of a rabbit serum to linear peptides / Binding of a rabbit serum to looped peptides / Rabbit serum linear peptides / Rabbit serum looped peptides / Binding of a rabbit serum to linear peptides of protein N of SARS-CoV Urbani (Rabbit serum linear peptides) / Binding of a rabbit serum to looped/cyclic peptides of protein N of SARS-CoV Urbani (Rabbit serum looped peptides): unit not given here
[2] = system: control sera (pooled serum of ten healthy LUMC hospital workers; commercial negative donor pooled serum from the Dutch bloodbank); format: binding, human; design: Binding of Control serum LUMC to linear peptides / Binding of Control serum Blood-bank to linear peptides / Binding of Control serum LUMC to looped peptides / Binding of Control Serum Blood-Bank to Looped peptides / Binding of Control serum LUMC to linear peptides of the protein M of SARS-CoV Urbani / Binding of Control serum Blood-bank to linear peptides of the protein M of SARS-CoV Urbani / Binding of Control serum LUMC to looped peptides of the protein M of SARS-CoV Urbani / Binding of Control Serum Blood-Bank to Looped peptides of the protein M of SARS-CoV Urbani: unit not given here
[3] = system: recombinant human anti-SARS-CoV antibody 03-018; format: binding; design: Binding of antibody 03-018 to linear peptides of the N protein of SARS-CoV Urbani / Binding of antibody 03-018 to looped/cyclic peptides of the N protein of SARS-CoV Urbani: unit not given here
[4] = system: antibodies in sera from SARS patients (sera 1a, 1b, 2, 6, 37, 62, London, SARS-yellow, SARS-green); format: binding, human; design: Binding of serum 6 to linear peptides of protein X1 of SARS-CoV Urbani / Binding of serum 37 to linear peptides of protein X1 of SARS-CoV Urbani / Binding of serum 6 to looped/cyclic peptide (PEPSCAN-ELISA) / Binding of serum 37 to looped/cyclic peptide (PEPSCAN-ELISA) / Binding of serum 37 to looped/cyclic peptides of protein X1 of SARS-CoV Urbani / Binding of serum 6 to linear peptides of protein X2 / Binding of serum 37 to linear peptides of protein X2 / Binding of serum 37 to looped/cyclic peptides of protein X2 of SARS-CoV Urbani / Binding of serum 6 to linear peptides of protein M of SARS-CoV Urbani / Binding of serum 37 to linear peptides of protein M of SARS-CoV Urbani / Binding of serum 6 to looped/cyclic peptides of protein M of SARS-CoV Urbani / Binding of serum 37 to looped/cyclic peptides of protein M of SARS-CoV Urbani / Binding of serum 6 to linear peptides of protein X3 of SARS-CoV Urbani / Binding of serum 37 to linear peptides of protein X3 of SARS-CoV Urbani / Binding of serum 37 to looped/cyclic peptides of protein X3 of SARS-CoV Urbani / Binding of serum 6 to linear peptides of protein X4 of SARS-CoV Urbani / Binding of serum 37 to linear peptides of protein X4 of SARS-CoV Urbani / Binding of serum 37 to looped/cyclic peptides of protein X4 of SARS-CoV Urbani / Binding of serum 6 to linear peptides of protein X5 of SARS-CoV Urbani / Binding of serum 37 to linear peptides of protein X5 of SARS-CoV Urbani / Binding of serum 37 to looped/cyclic peptides of protein X5 of SARS-CoV Urbani / Binding of serum 6 to linear peptides of protein N of SARS-CoV Urbani / Binding of serum 37 to linear peptides of protein N of SARS-CoV Urbani / Binding of serum 6 to linear peptide (PEPSCAN-ELISA) / Binding of serum 1a to looped/cyclic peptides of protein N of SARS-CoV Urbani / Binding of serum 1b to looped/cyclic peptides of protein N of SARS-CoV Urbani / Binding of serum 2 to looped/cyclic peptides of protein N of SARS-CoV Urbani / Binding of serum 6 to looped/cyclic peptides of protein N of SARS-CoV Urbani / Binding of serum 37 to looped/cyclic peptides of protein N of SARS-CoV Urbani / Binding of serum 62 to looped/cyclic peptides of protein N of SARS-CoV Urbani / Binding of serum London to looped/cyclic peptides of protein N of SARS-CoV Urbani / Binding of serum SARS-green to looped/cyclic peptides of protein N of SARS-CoV Urbani: unit not given here

| Sequence | Binding of a rabbit serum to linear peptides of protein N of SARS-CoV Urbani (Rabbit serum linear peptides) [1] | Binding of a rabbit serum to looped/cyclic peptides of protein N of SARS-CoV Urbani (Rabbit serum looped peptides) [1] | Binding of Control Serum Blood-Bank to Looped peptides [2] | Binding of Control serum Blood-bank to linear peptides [2] | Binding of Control serum LUMC to linear peptides [2] | Binding of Control serum LUMC to looped peptides [2] | Binding of antibody 03-018 to linear peptides of the N protein of SARS-CoV Urbani [3] | Binding of antibody 03-018 to looped/cyclic peptides of the N protein of SARS-CoV Urbani [3] | Binding of serum 1a to linear peptides of protein N of SARS-CoV Urbani [4] | Binding of serum 1a to looped/cyclic peptides of protein N of SARS-CoV Urbani [4] | Binding of serum 1b to linear peptides of protein N of SARS-CoV Urbani [4] | Binding of serum 1b to looped/cyclic peptides of protein N of SARS-CoV Urbani [4] | Binding of serum 2 to linear peptides of protein N of SARS-CoV Urbani [4] | Binding of serum 2 to looped/cyclic peptides of protein N of SARS-CoV Urbani [4] | Binding of serum 6 to linear peptides of protein N of SARS-CoV Urbani [4] | Binding of serum 6 to looped/cyclic peptides of protein N of SARS-CoV Urbani [4] | Binding of serum 37 to linear peptides of protein N of SARS-CoV Urbani [4] | Binding of serum 37 to looped/cyclic peptides of protein N of SARS-CoV Urbani [4] | Binding of serum 62 to linear peptides of protein N of SARS-CoV Urbani [4] | Binding of serum 62 to looped/cyclic peptides of protein N of SARS-CoV Urbani [4] | also measured |
| --- | --- | --- | --- | --- | --- | --- | --- | --- | --- | --- | --- | --- | --- | --- | --- | --- | --- | --- | --- | --- | --- |
| LPYGANKEGIVWVAT | 0.2 | 0.6 | 0.5 | 0.7 | 0.6 | 0.6 | 0.1 | 0.2 | 0.2 | 0.5 | 0.2 | 0.3 | 0.3 | 0.6 | 0.2 | 0.4 | 0.7 | 0.9 | 0.7 | 0.8 | Binding of serum London to linear peptides of protein N of SARS-CoV Urbani [4]: 0.5; Binding of serum London to looped/cyclic peptides of protein N of SARS-CoV Urbani [4]: 0.5; Binding of serum SARS-green to linear peptides of protein N of SARS-CoV Urbani [4]: 0.3; Binding of serum SARS-green to looped/cyclic peptides of protein N of SARS-CoV Urbani [4]: 0.4; Binding of serum SARS-yellow to linear peptides of protein N of SARS-CoV Urbani [4]: 0.6; Binding of serum SARS-yellow to looped/cyclic peptides of protein N of SARS-CoV Urbani [4]: 0.4 |
| LTQHGKEELRFPRGQ | 0.1 | 0.4 | 0.6 | 0.8 | 0.6 | 0.6 | 0.1 | 0.2 | 0.2 | 0.4 | 0.1 | 0.2 | 0.3 | 0.4 | 0.2 | 0.3 | 0.6 | 0.6 | 0.7 | 0.4 | Binding of serum London to linear peptides of protein N of SARS-CoV Urbani [4]: 0.4; Binding of serum London to looped/cyclic peptides of protein N of SARS-CoV Urbani [4]: 0.4; Binding of serum SARS-green to linear peptides of protein N of SARS-CoV Urbani [4]: 0.3; Binding of serum SARS-green to looped/cyclic peptides of protein N of SARS-CoV Urbani [4]: 0.3; Binding of serum SARS-yellow to linear peptides of protein N of SARS-CoV Urbani [4]: 0.6; Binding of serum SARS-yellow to looped/cyclic peptides of protein N of SARS-CoV Urbani [4]: 0.4 |
